Laboratory results from ChEMBL document CHEMBL1201862, “PubChem BioAssay data set” (2004).
Structures can show the parent of a compound that is named as a salt.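 Interpolation was linear, between the two tested concentrations surrounding the appropriate level; five concentrations were tested over 48 hours in 96-well plates. At the GI50, growth is halved.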 Calls of active or inactive are those of the source. No stated cut-off is given here; in the data, active = GI50 up to about 1.1 µM and inactive = higher.

Key:
Test in all cases: growth of human tumour cells (NCI), 48 h
NCI/ADR-RES = tested on: NCI/ADR-RES
SR = tested on: SR
786-0 = tested on: 786-0
ACHN = tested on: ACHN
SK-OV-3 = tested on: SK-OV-3
PC-3 = tested on: PC-3
A549 = tested on: A549
SF-268 = tested on: SF-268
HCT-15 = tested on: HCT-15
SW-620 = tested on: SW-620
RXF 393 = tested on: RXF 393
DU-145 = tested on: DU-145
EKVX = tested on: EKVX
K562 = tested on: K562
HL-60 = tested on: HL-60
TK-10 = tested on: TK-10
NCI-H460 = tested on: NCI-H460
HT-29 = tested on: HT-29
HOP-92 = tested on: HOP-92

In the case of CCN1C(=O)CS/C1=N\NC(=O)CSc1nc2ccccc2c(=O)n1CC, the GI50 (NCI/ADR-RES) is reported as > 100 µM (inactive), the GI50 (SR) is reported as > 100 µM (inactive) and the GI50 (786-0) is reported as > 100 µM (inactive). For the same compound, the GI50 (ACHN) was > 100 µM (inactive), the GI50 (SK-OV-3) was > 100 µM (inactive) and the GI50 (PC-3) was > 100 µM (inactive). The GI50 (A549) was > 100 µM (inactive), the GI50 (SF-268) was > 100 µM (inactive) and the GI50 (HCT-15) was greater than 100 µM. For the same compound, the GI50 (SW-620) was > 100 µM (inactive), the GI50 (RXF 393) was 65.9 µM (inactive) and the GI50 (DU-145) was > 100 µM (inactive). The GI50 (EKVX) was > 100 µM (inactive), the GI50 (K562) was > 100 µM (inactive) and the GI50 (HL-60) was 96.4 µM (inactive). For the same compound, the GI50 (TK-10) was > 100 µM (inactive) and the GI50 (NCI-H460) was 10.3 µM (inactive).

Cn1c(=O)oc2cc(C(=O)CN3CCN(Cc4ccc5c(c4)OCO5)CC3)c(Cl)cc21 was tested, and the GI50 (NCI/ADR-RES) was > 100 µM (inactive), the GI50 (SR) was > 100 µM (inactive) and the GI50 (786-0) was > 100 µM (inactive). For the same compound, the GI50 (ACHN) was > 100 µM (inactive), the GI50 (SK-OV-3) was > 100 µM (inactive) and the GI50 (PC-3) was > 100 µM (inactive). The GI50 (SF-268) was > 100 µM (inactive), the GI50 (HCT-15) was greater than 100 µM and the GI50 (RXF 393) was > 100 µM (inactive). For the same compound, the GI50 (DU-145) was > 100 µM (inactive), the GI50 (K562) was > 100 µM (inactive) and the GI50 (HL-60) was > 100 µM (inactive). The GI50 (NCI-H460) was > 100 µM (inactive).

In the case of N#CCC(=O)N/N=C\C(O)C(O)C(O)C(O)CO (stereo unspecified), the GI50 (NCI/ADR-RES) is reported as > 100 µM (inactive), the GI50 (SR) is reported as > 100 µM (inactive) and the GI50 (786-0) is reported as > 100 µM (inactive). For the same compound, the GI50 (ACHN) was > 100 µM (inactive), the GI50 (SK-OV-3) was > 100 µM (inactive) and the GI50 (PC-3) was > 100 µM (inactive). For the same compound, the GI50 (A549) was > 100 µM (inactive), the GI50 (SF-268) was > 100 µM (inactive) and the GI50 (HCT-15) was greater than 100 µM. The GI50 (SW-620) was > 100 µM (inactive), the GI50 (RXF 393) was > 100 µM (inactive) and the GI50 (HT-29) was > 100 µM (inactive). The GI50 (DU-145) was > 100 µM (inactive), the GI50 (K562) was > 100 µM (inactive) and the GI50 (HL-60) was > 100 µM (inactive). For the same compound, the GI50 (TK-10) was > 100 µM (inactive) and the GI50 (NCI-H460) was > 100 µM (inactive).

For Cc1cccc(/C=N/NC(=S)Nc2ccccc2)n1, the GI50 (NCI/ADR-RES) was 2.88 µM (inactive), the GI50 (SR) was 16.6 µM (inactive) and the GI50 (786-0) was 2.27 µM (inactive). For the same compound, the GI50 (ACHN) was 2.6 µM (inactive), the GI50 (SK-OV-3) was 9.53 µM (inactive) and the GI50 (PC-3) was 6 µM (inactive). For the same compound, the GI50 (A549) was 5.61 µM (inactive), the GI50 (HOP-92) was 5.15 µM (inactive) and the GI50 (SF-268) was 3.31 µM (inactive). The GI50 (HCT-15) was 1.98 µM, the GI50 (SW-620) was 5.25 µM (inactive) and the GI50 (RXF 393) was 5.48 µM (inactive). The GI50 (HT-29) was 3.17 µM (inactive), the GI50 (DU-145) was 4.18 µM (inactive) and the GI50 (EKVX) was 5.97 µM (inactive). The GI50 (K562) was 4.1 µM (inactive), the GI50 (TK-10) was 2.43 µM (inactive) and the GI50 (NCI-H460) was 1.57 µM (inactive).

In the case of Cc1cc2nc(N3C(=O)/C(=C/c4ccc(Oc5ccccc5)cc4)N=C3c3ccccc3)sc2cc1C, the GI50 (NCI/ADR-RES) is reported as 26.2 µM (inactive), the GI50 (786-0) is reported as 50.8 µM (inactive) and the GI50 (ACHN) is reported as > 100 µM (inactive). For the same compound, the GI50 (SK-OV-3) was > 100 µM (inactive), the GI50 (PC-3) was 40 µM (inactive) and the GI50 (A549) was 48.2 µM (inactive). For the same compound, the GI50 (HOP-92) was 95.5 µM (inactive), the GI50 (SF-268) was 63.8 µM (inactive) and the GI50 (HCT-15) was 29.4 µM. For the same compound, the GI50 (SW-620) was 28.2 µM (inactive), the GI50 (RXF 393) was 58.9 µM (inactive) and the GI50 (HT-29) was 31.6 µM (inactive). For the same compound, the GI50 (DU-145) was > 100 µM (inactive), the GI50 (EKVX) was 42.6 µM (inactive) and the GI50 (K562) was 24.5 µM (inactive). The GI50 (HL-60) was 23.6 µM (inactive), the GI50 (TK-10) was 59.4 µM (inactive) and the GI50 (NCI-H460) was 32.1 µM (inactive).

With CC[C@]12CN3CCc4c([nH]c5ccccc45)[C@@](C(=O)OC)(c4cc5c(cc4OC)N(C)[C@H]4[C@@](O)(C(=O)OC)[C@H](OC(C)=O)[C@]6(CC)C=CCN7CC[C@]54[C@@H]76)CC(C3)[C@H]1O2 (stereo partly specified) [VINLEUROSINE SULFATE] the GI50 (NCI/ADR-RES) was 16.1 µM (inactive), the GI50 (786-0) was < 0.01 µM (active) and the GI50 (ACHN) was 1.33 µM (inactive). For the same compound, the GI50 (SK-OV-3) was 0.12 µM (active), the GI50 (PC-3) was 0.134 µM (active) and the GI50 (A549) was 0.394 µM (active). The GI50 (HOP-92) was 8.13 µM (inactive), the GI50 (SF-268) was 1.02 µM (active) and the GI50 (HCT-15) was 0.449 µM. The GI50 (SW-620) was < 0.0208 µM (active), the GI50 (RXF 393) was 0.158 µM (active) and the GI50 (HT-29) was < 0.0172 µM (active). For the same compound, the GI50 (DU-145) was < 0.01 µM (active), the GI50 (EKVX) was 10.8 µM (inactive) and the GI50 (K562) was < 0.01 µM (active). For the same compound, the GI50 (HL-60) was < 0.01 µM (active), the GI50 (TK-10) was > 47.5 µM (inactive) and the GI50 (NCI-H460) was < 0.01 µM (active).
